For one data set, the target named is T1, JAK2 JH2 (Homo sapiens, UniProt O60674).
T1 construct: Enzyme: JAK2 JH2, His-Avi-Tag, Biotin-Labeled (BPS Bioscience, Cat #79074) 1 nM; His; purchased BPS Bioscience 79074
The data set can be described thus: JAK2 JH2 TR-FRET Assay. The class given is binding. The following applies: JAK2 JH2 1 nM, Tracer ZE84-0003 10 nM. The protocol:
Assay Buffer 1×: • 20 mM HEPES pH 7.2-7.4; • 10 mM MgCl2; • 0.015% Brij-35; • 2 mM DTT; • 0.05 mg/ml BSA.
Final assay concentrations: • DMSO: 0.25%; • Streptavidin Tb-cryptate (Cisbio, Cat #610SATLB) 0.2 nM; • Enzyme: JAK2 JH2, His-Avi-Tag, Biotin-Labeled (BPS Bioscience, Cat #79074) 1 nM; • Probe: Tracer ZE84-0003 (ChemRar) 10 nM.
Materials: • Reaction plate: ProxiPlate-384 Plus White Plate (PerkinElmer); • Dilution plate: Diamond Well Plate (Axygen, Cat #P-384-120 SQ-C-S); • Compounds plate: Diamond Well Plate (Axygen, Cat #P-384-120 SQ-C-S).
Assay protocol: • 1. Prepare 400× solutions of compounds in DMSO into Compounds plate; • 2. Prepare Dilution plate: add 39 μL of 1× Assay buffer per well of Dilution plate; • 3. Prepare 2×Tb-cryptate mix in 1× Assay buffer. Add 10 μL of 2×Tb-cryptate mix to K-(Tb-cryptate and Probe without Enzyme) wells and blank (Tb-cryptate without Probe and Enzyme) wells; • 4. Add JAK2 JH2 into the rest of 2×Tb-cryptate mix to make 2×JAK2 JH2+Tb-cryptate mix. Add 10 μL per well into Reaction plate; • 5. Centrifuge plate at 200 g for 1 min; • 6. Dilute 1 μL of 400× compounds in 39 μL 1× Assay buffer in Dilution plate; • 7. Add 2 μL of 10× compounds from Dilution plate to Reaction plate with 10 μL of JAK2 JH2+Tb-cryptate mix; • 8. Centrifuge plate at 200 g for 1 min; • 9. Pre-incubate Reaction plate with compounds 15 min; • 10. Prepare 2.5× Tracer mix; • 11. Add 8 μL of 2.5× Tracer mix into appropriate wells of Reaction plate; • 12. Centrifuge plate at 800 g for 3 min; • 13. Incubate at rt for 15 min; • 14. Measure Fluorescence using Microplate Reader (Ex: TR, Em1/Em2: 482/520). The results of this assay are shown in the Table B. The values of EC50 shown as a letters A-D, where: A≤0.01 μM; 0.01 μM<B≤0.05 μM; 0.05 μM<C≤0.1 μM; D>0.1.
(In general: In TR-FRET formats the signal depends on donor and acceptor labels being close together.)

Data set [1] is described as follows: Proliferation inhibition assay (CellTiter-Glo), Ba/F3 JAK2 wt. The class given is cell-based. The following applies: mouse, Ba/F3 (JAK2 wt) cells, with 10 ng/ml rmIL-3, 72 h; read-out: Ba/F3 JAK2 wt + IL3, CC50 3 days. The method, then: (§1) Ba/F3 (JAK2 wt) (ABM, T3076) cells and Ba/F3 (JAK2 V617F) (WuXi AppTec) cells were grown in RPMI-1640 (Gibco, cat. number 21870) supplemented with 10% FBS (Hyclone Laboratories Inc, Cat #SV30160.03), 1× Antibiotic-antimycotic (Gibco, Cat #15240-062), 2× Sodium pyruvate (Paneco, cat #F023), 2× Essential amino acids (Paneco, cat #F115/100), 1× Non-Essential amino acids (Paneco, cat #F116) at 37° C. in 5% CO2 atmosphere.
(§2) For the proliferation inhibition assay Ba/F3 (JAK2 wt) and Ba/F3 (JAK2 V617F) cells were seeded into a CellBIND® 384-well Flat Clear Bottom Black Polystyrene Microplates (Corning, USA, Cat #3770) at a density of 4000 cells per well in complete culture medium with or without 10 ng/ml rmIL-3 (RD systems, USA, Cat #403-ML-025) using Biomek FX/NX (384) liquid handler, 45 μl of cell suspension in complete culture medium per well. 500× compound's stocks in DMSO (Sigma Cat #D2650) were prepared in compounds plate (Diamond Well Plate, Axigen, Cat #P-384-120 SQ-C-S) applying Biomek 2000. 1 μl of 500× compounds stock was added to 49 μl of complete culture medium into Dilution plate (Diamond Well Plate, Axigen, Cat #P-384-120 SQ-C-S), mixed and then 5 μl of 10× compounds solution was transferred to cells using Biomek FX/NX (384) liquid handler. The centrifugation at 100 g for 1 min at Eppendorf 5810 followed. Final DMSO concentration in assay was 0.2%. All treatments were performed in technical and biological duplicates. Treated cells were incubated for 72 h at 37° C. with 5% CO2.
(§3) After 3 days of incubation, CellTiter-Glo Luminescent Cell Viability Assay (Promega) was performed. 10 μl of CellTiter-Glo (Promega, CAT #G7572) was added to the cells using Biomek FX/NX (384) liquid handler. The assay plate was centrifuged at 100 g for 1 min and luminescence signal was measured using Microplate Reader (CLARIOStar).
A general note: ATP-based viability assays read luminescence as a measure of living cells.

The next data set has as its system Ba/F3 (JAK2 V617F) cells. The data set can be described thus: Proliferation inhibition assay (CellTiter-Glo), Ba/F3 JAK2 V617F. The class given is cell-based. The following applies: Mus musculus, BaF3; without IL3, 72 h; read-out: Ba/F3 JAK2 V617F, CC50 3 days. The method, then: as §1, §2, §3

T1 sequence (O60674 545-809 limits assumed): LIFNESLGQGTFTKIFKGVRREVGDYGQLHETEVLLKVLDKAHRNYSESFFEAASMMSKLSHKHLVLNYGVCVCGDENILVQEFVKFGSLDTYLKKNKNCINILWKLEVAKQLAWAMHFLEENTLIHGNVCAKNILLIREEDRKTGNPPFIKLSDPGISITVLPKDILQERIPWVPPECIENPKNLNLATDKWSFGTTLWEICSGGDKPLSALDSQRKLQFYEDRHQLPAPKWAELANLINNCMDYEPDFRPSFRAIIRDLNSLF

The term EC50 denotes the concentration giving half of the maximal effect. Higher therefore signals a less potent agent. On to `COc1c(Nc2nc(Nc3cnn(C4CCCCC4)c3)ncc2C(N)=O)cccc1-c1nc2ccccc2o1` [Compound 45, 4-[3-(1,3-benzoxazol-2-yl)-2-methoxy-anilino]-2-[(1-cyclohexylpyrazol-4-yl)amino]pyrimidine-5-carboxamide], for which the EC50 on JAK2 JH2 is greater than 100 nM. In addition, in data set [1], the CC50 at 72 h is 5000 to 10000 nM. Besides, the CC50 with Ba/F3 (JAK2 V617F) cells fell in the range of 500 to 1000 nM.
Turning to `COc1c(Nc2nc(Nc3c(C)nn(C(C)C)c3C)ncc2C(N)=O)cccc1-c1ncn(C)n1` [Compound 20, 2-[(1-isopropyl-3,5-dimethyl-pyrazol-4-yl)amino]-4-[2-methoxy-3-(1-methyl-1,2,4-triazol-3-yl)anilino]pyrimidine-5-carboxamide], the EC50 at JAK2 JH2 was greater than 100 nM.
As to `COc1c(Nc2nc(Nc3cnn(CC(F)(F)F)c3)ncc2C(N)=O)cccc1-c1ncn(C)n1` [Compound 59], the CC50 at 72 h in data set [1] is 5000 to 10000 nM. Moreover, the CC50 in the data set on Ba/F3 (JAK2 V617F) cells was 1000 to 5000 nM.
For the compound `COCCn1cc(Nc2ncc(C(N)=O)c(Nc3cccc(-c4ncn(C)n4)c3OC)n2)cn1` [Compound 51], the EC50 at JAK2 JH2 is 10 to 50 nM. In data set [1], the CC50 at 72 h is greater than 10000 nM. In addition, in the data set with Ba/F3 (JAK2 V617F) cells, the CC50 is 1000 to 5000 nM.
For the compound `COc1c(Nc2nc(Nc3cnn(C4CCN(C(C)C)CC4)c3)ncc2C(N)=O)cccc1-c1ncn(C)n1` [Compound 35, 2-[[1-(1-isopropyl-4-piperidyl)pyrazol-4-yl]amino]-4-[2-methoxy-3-(1-methyl-1,2,4-triazol-3-yl)anilino]pyrimidine-5-carboxamide], the EC50 on JAK2 JH2 lay within 10 to 50 nM. Besides, the CC50 at 72 h in data set [1] was greater than 10000 nM. Besides, the CC50 in the data set with Ba/F3 (JAK2 V617F) cells was in the range of 1000 to 5000 nM.
In the case of `CCCn1nc(C)c(Nc2ncc(C(N)=O)c(Nc3cccc(-c4ncn(C)n4)c3OC)n2)c1C` [Compound 19, 2-[(3,5-dimethyl-1-propyl-pyrazol-4-yl)amino]-4-[2-methoxy-3-(1-methyl-1,2,4-triazol-3-yl)anilino]pyrimidine-5-carboxamide], the EC50 at JAK2 JH2 was greater than 100 nM.
As to `COc1c(Nc2nc(Nc3cnn(C4CCOCC4)c3)ncc2C(N)=O)cccc1-c1ccccn1` [Compound 40, 4-[2-methoxy-3-(2-pyridyl)anilino]-2-[(1-tetrahydropyran-4-ylpyrazol-4-yl)amino]pyrimidine-5-carboxamide], the EC50 at JAK2 JH2 was 10 to 50 nM. Moreover, the CC50 at 72 h in data set [1] fell in the range of 5000 to 10000 nM. Further, in the data set with Ba/F3 (JAK2 V617F) cells, the CC50 was no more than 500 nM.
Consider `COc1c(Nc2nc(Nc3cnn(C4CCN(C(C)C)CC4)c3)ncc2C(N)=O)cccc1-c1nc2ccccc2o1` [Compound 33, 4-[3-(1,3-benzoxazol-2-yl)-2-methoxy-anilino]-2-[[1-(1-isopropyl-4-piperidyl)pyrazol-4-yl]amino]pyrimidine-5-carboxamide], for which the EC50 on JAK2 JH2 is 10 to 50 nM. For the same compound, the CC50 at 72 h in data set [1] lay within 1000 to 5000 nM. Further, the CC50 with Ba/F3 (JAK2 V617F) cells was no more than 500 nM.
As to `COc1c(Nc2nc(Nc3cnn(CCC4CCCCN4C)c3)ncc2C(N)=O)cccc1-c1ncn(C)n1` (stereo not drawn) [Compound 27, 4-[2-methoxy-3-(1-methyl-1,2,4-triazol-3-yl)anilino]-2-[[1-[2-(1-methyl-2-piperidyl)ethyl]pyrazol-4-yl]amino]pyrimidine-5-carboxamide], the EC50 at JAK2 JH2 was greater than 100 nM.
At JAK2 JH2, `COCCn1cc(Nc2ncc(C(N)=O)c(Nc3cccc(-c4nc5ccccc5o4)c3OC)n2)cn1` [Compound 50] gave an EC50 of 10 to 50 nM. Moreover, the CC50 at 72 h in data set [1] is greater than 10000 nM. In addition, the CC50 in the data set with Ba/F3 (JAK2 V617F) cells was no more than 500 nM.
In the case of `COc1c(Nc2nc(Nc3cnn(CC(C)C)c3)ncc2C(N)=O)cccc1-c1ncn(C)n1` [Compound 58, 2-[(1-isobutylpyrazol-4-yl)amino]-4-[2-methoxy-3-(1-methyl-1,2,4-triazol-3-yl)anilino]pyrimidine-5-carboxamide], the CC50 at 72 h in data set [1] lay within 1000 to 5000 nM. Moreover, the CC50 with Ba/F3 (JAK2 V617F) cells was 500 to 1000 nM.
Regarding `COc1c(Nc2nc(Nc3cnn(C)c3)ncc2C(N)=O)cccc1-c1cccnc1` [Compound 36, 4-[2-methoxy-3-(3-pyridyl)anilino]-2-[(1-methylpyrazol-4-yl)amino]pyrimidine-5-carboxamide], the half-maximal effective concentration (EC50) at JAK2 JH2 fell in the range of 10 to 50 nM. Besides, the CC50 at 72 h in data set [1] is greater than 10000 nM. The CC50 in the data set on Ba/F3 (JAK2 V617F) cells is greater than 10000 nM.
In turn, `CCOCCn1cc(Nc2ncc(C(N)=O)c(Nc3cccc(-c4nc5ccccc5o4)c3OC)n2)cn1` [Compound 54] showed an EC50 on JAK2 JH2 of 10 to 50 nM. Further, the CC50 at 72 h in data set [1] is 1000 to 5000 nM. The CC50 in the data set on Ba/F3 (JAK2 V617F) cells was no more than 500 nM.
At JAK2 JH2, `COc1c(Nc2nc(Nc3cnn(C4CCN(C)CC4)c3)ncc2C(N)=O)cccc1-c1nc2ccccc2o1` [Compound 32, 4-[3-(1,3-benzoxazol-2-yl)-2-methoxy-anilino]-2-[[1-(1-methyl-4-piperidyl)pyrazol-4-yl]amino]pyrimidine-5-carboxamide] came in with an EC50 of 10 to 50 nM. In addition, the CC50 at 72 h in data set [1] was in the range of 1000 to 5000 nM. In addition, the CC50 with Ba/F3 (JAK2 V617F) cells is 500 to 1000 nM.
In the case of `COc1c(Nc2nc(Nc3cnn(C)c3)ncc2C(N)=O)cccc1-c1ccncc1` [Compound 37, 4-[2-methoxy-3-(4-pyridyl)anilino]-2-[(1-methylpyrazol-4-yl)amino]pyrimidine-5-carboxamide], the EC50 on JAK2 JH2 fell in the range of 10 to 50 nM. In data set [1], the CC50 at 72 h was in the range of 5000 to 10000 nM. Also, the CC50 with Ba/F3 (JAK2 V617F) cells was in the range of 5000 to 10000 nM.
`CCCCCCCCn1cc(Nc2ncc(C(N)=O)c(Nc3cccc(-c4ncn(C)n4)c3OC)n2)cn1` [Compound 25, 4-[2-methoxy-3-(1-methyl-1,2,4-triazol-3-yl)anilino]-2-[(1-octylpyrazol-4-yl)amino]pyrimidine-5-carboxamide]: the EC50 on JAK2 JH2 is greater than 100 nM.
The compound `COc1c(Nc2nc(Nc3cnn(C(C)C)c3)ncc2C(=O)N(C)C)cccc1-c1ncn(C)n1` [Compound 31, 2-[(1-Isopropyl-1H-pyrazol-4-yl)amino]-4-{[2-methoxy-3-(1-methyl-1H-1,2,4-triazol-3-yl)phenyl]amino}-N,N-dimethylpyrimidine-5-carboxamide] returned an EC50 on JAK2 JH2 greater than 100 nM.
Turning to `COc1c(Nc2nc(Nc3cnn(CC45CC6CC(CC(C6)C4)C5)c3)ncc2C(N)=O)cccc1-c1ncn(C)n1` [Compound 23, 2-[[1-(1-adamantylmethyl)pyrazol-4-yl]amino]-4-[2-methoxy-3-(1-methyl-1,2,4-triazol-3-yl)anilino]pyrimidine-5-carboxamide], on JAK2 JH2, the EC50 was greater than 100 nM.
`COc1c(Nc2nc(Nc3cnn(CCN(C)C)c3)ncc2C(N)=O)cccc1-c1ncn(C)n1` [Compound 5, 2-((1-(2-(dimethylamino)ethyl)-1H-pyrazol-4-yl)amino)-4-((2-methoxy-3-(1-methyl-1H-1,2,4-triazol-3-yl)phenyl)amino)pyrimidine-5-carboxamide]: the EC50 at JAK2 JH2 lay within 10 to 50 nM.
`COc1c(Nc2nc(Nc3cn(C)nc3C)ncc2C(N)=O)cccc1-c1ncn(C)n1` [Compound 13, 2-[(1,3-dimethylpyrazol-4-yl)amino]-4-[2-methoxy-3-(1-methyl-1,2,4-triazol-3-yl)anilino]pyrimidine-5-carboxamide]: the EC50 on JAK2 JH2 is greater than 100 nM.

(Values after patent publication US20260217688A1, “INHIBITORS OF JAK2” (Llydaw Therapeutics, Inc., priority 2022, published 2026).)
